Source: ChEMBL document CHEMBL4613205, “Peptide-based and small synthetic molecule inhibitors on PD-1/PD-L1 pathway: A new choice for immunotherapy?” (Eur J Med Chem, 2019)
Bridge positions count the residues as written; N and C are the ends. Square brackets hold non-standard residues; d marks the D form. Peptide text beside a SMILES is read from it. * marks the point of attachment. ξ: configuration not given here. X1 = NC(CO)C(=O)NC(Cc1ccccc1)C(=O)NCCCCN*; ξE = NC(CCC(=O)O)C(=O)O; ξK = NCCCCC(N)C(=O)O

Tests used:
[1] = biological target: T1, Programmed cell death 1 ligand 1 (Homo sapiens, UniProt Q9NZQ7); assay: Antagonist activity against PDL1 (unknown origin)
CT26 = assay: Antitumor activity against mouse CT26 cells xenografted in mouse assessed as reduction in tumor growth at 3 mg/kg after 25 days relative to control; format: functional; settings: CT26, 600 h, read-out: TGI
[2] = biological target: T1, Programmed cell death 1 ligand 1; assay: Inhibition of PDL1 (unknown origin)
[3] = biological target: T2, Programmed cell death 1 ligand 2 (Homo sapiens, UniProt Q9BQ51); assay: Inhibition of PDL2 (unknown origin)
T2 sequence (Q9BQ51 whole entry): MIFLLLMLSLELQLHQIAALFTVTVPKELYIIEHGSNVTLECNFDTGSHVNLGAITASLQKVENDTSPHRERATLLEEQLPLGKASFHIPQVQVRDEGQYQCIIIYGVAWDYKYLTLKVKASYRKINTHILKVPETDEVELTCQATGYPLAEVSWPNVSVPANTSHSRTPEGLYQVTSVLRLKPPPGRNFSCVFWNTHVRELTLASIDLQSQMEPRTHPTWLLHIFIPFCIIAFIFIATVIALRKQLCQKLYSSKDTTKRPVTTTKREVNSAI

Splenocyte [4] = assay: Antiproliferative activity against mouse splenocytes at 100 nM relative to control; format: functional
Splenocyte [5] = assay: Antiproliferative activity against mouse splenocytes relative to control; format: functional; design: concentration or dose not given beside the values
[6] = biological target: Programmed cell death protein 1/Programmed cell death 1 ligand 1 (Homo sapiens, UniProt Q15116+Q9NZQ7); assay: Inhibition of human PD1/PDL1 protein-protein interaction by HTRF assay; format: protein-complex assay
4T1 = assay: Antitumor activity against mouse 4T1 cells xenografted in mouse assessed as reduction in tumor growth at 3 mg/kg, sc qd after 40 days relative to control; format: functional; settings: 4T1, sc, 960 h, read-out: TGI
B16-F10 = assay: Antitumor activity against mouse B16F10 cells xenografted in mouse assessed as reduction in tumor growth at 5 mg/kg, sc qd after 14 days relative to control; format: functional; settings: 336 h, read-out: TGI
HEK293 = assay: Antiproliferative activity against HEK293 cells; format: functional, cell-based; settings: Homo sapiens
MDA-MB-231 = assay: Antiproliferative activity against human MDA-MB-231 cells; format: functional, cell-based

Programmed cell death protein 1/Programmed cell death 1 ligand 1, sequence (Q15116 whole entry): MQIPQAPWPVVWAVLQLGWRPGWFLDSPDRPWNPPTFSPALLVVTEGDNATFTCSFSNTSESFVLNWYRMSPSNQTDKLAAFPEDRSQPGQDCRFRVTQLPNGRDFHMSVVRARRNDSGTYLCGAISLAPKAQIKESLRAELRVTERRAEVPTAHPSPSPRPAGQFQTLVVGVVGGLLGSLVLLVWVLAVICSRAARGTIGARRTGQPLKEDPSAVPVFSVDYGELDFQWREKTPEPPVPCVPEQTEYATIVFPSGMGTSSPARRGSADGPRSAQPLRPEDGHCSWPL
Programmed cell death protein 1/Programmed cell death 1 ligand 1, sequence (Q9NZQ7 whole entry): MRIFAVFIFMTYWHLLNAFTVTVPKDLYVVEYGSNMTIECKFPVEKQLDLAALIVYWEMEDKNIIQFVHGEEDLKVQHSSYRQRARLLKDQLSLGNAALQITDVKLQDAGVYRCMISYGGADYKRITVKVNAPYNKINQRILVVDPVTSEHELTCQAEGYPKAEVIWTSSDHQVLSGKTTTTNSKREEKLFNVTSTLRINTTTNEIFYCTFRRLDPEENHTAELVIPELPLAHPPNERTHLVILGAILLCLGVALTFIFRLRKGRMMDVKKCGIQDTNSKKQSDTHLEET
T1 sequence (Q9NZQ7 whole entry): as above

Compound: O=C(/C=C/c1ccc(O)c(O)c1)O[C@H]1C[C@@](O)(C(=O)O)C[C@H](O)[C@@H]1O
- IC50 [1]: 36600 nM

Compound: C[C@@H](O)[C@H](NC(=O)N[C@@H](CC(N)=O)C(=O)NNC(=O)[C@@H](N)CO)C(=O)O
- inhibition in vivo at 3 mg/kg (CT26): 46%
- EC50 [2]: 30 nM
- EC50 [3]: 40 nM
- Activity (Splenocyte [4]): 68%

Compound: C[C@@H](O)[C@H](N)c1nnc([C@H](CCC(N)=O)NC(=O)N[C@@H](CO)C(=O)O)o1
- Activity (Splenocyte [5]): 92%

Compound: C#CC[C@H](NC(=O)N[C@H](C(=O)O)[C@@H](C)O)c1nc(-c2cnccn2)no1
- Activity (Splenocyte [5]): 92%

Compound: NCCCC[C@H](NC(=O)N[C@@H](CC(N)=O)C(=O)NNC(=O)[C@@H](N)CO)C(=O)O
- Activity (Splenocyte [5]): 87%

Compound: NC(=O)C[C@H](N)c1nc([C@@H](N)CO)no1
- Activity (Splenocyte [4]): 93%

Compound: Cc1c(/C=C/c2cc(CNC(C)(CO)C(=O)O)ccc2C(F)(F)F)cccc1-c1ccc2c(c1)OCCO2 (configuration not stated)
- IC50 [6]: 18 nM

Compound: N#Cc1cncc(COc2cc(O[C@H]3CCc4c(-c5ccccc5)cccc43)c(Cl)cc2CN[C@@H](CO)C(=O)O)c1
- IC50 [1]: < 100 nM

Compound: N#Cc1c(NC(=O)c2ccc(CNCCO)cn2)cccc1-c1ccccc1
- IC50 [6]: < 10 nM

Compound: NC(=O)C[C@H](NC(=O)N[C@@H](CO)C(=O)O)c1nc([C@@H](N)CO)no1
- Activity (Splenocyte [5]): 91%

Compound: CC[C@H](C)[C@H](NC(=O)[C@H](CCC(N)=O)NC(=O)[C@H](C)NC(=O)[C@H](CCCCN)NC(=O)[C@@H]1CCCN1C(=O)[C@H](C)NC(=O)[C@H](CC(C)C)NC(=O)[C@H](CCC(N)=O)NC(=O)[C@@H](NC(=O)[C@@H](NC(=O)[C@H](CCCNC(=N)N)NC(=O)[C@H](Cc1ccccc1)NC(=O)[C@H](CCCCNC(=O)[C@H](Cc1ccccc1)NC(=O)[C@H](CO)NC(=O)[C@H](CCC(=O)O)NC(=O)[C@H](CO)NC(=O)[C@@H](NC(=O)[C@H](CC(N)=O)NC(=O)[C@@H](N)CO)[C@@H](C)O)NC(=O)[C@H](Cc1ccccc1)NC(=O)[C@H](CO)NC(=O)[C@H](CCC(=O)O)NC(=O)[C@H](CO)NC(=O)[C@@H](NC(=O)[C@H](CC(N)=O)NC(=O)[C@@H](N)CO)[C@@H](C)O)C(C)C)[C@@H](C)O)C(=O)N[C@@H](CCCCN)C(=O)N[C@@H](CCC(=O)O)C(N)=O
- inhibition in vivo at 3 mg/kg (4T1): 44%
- inhibition in vivo at 5 mg/kg (B16-F10): 44%
- IC50 (HEK293): 0.72 nM
- IC50 (MDA-MB-231): 0.41 nM

Compound: N#Cc1cccc(COc2cc(OCc3cccc(-c4ccccc4)c3Br)c(Cl)cc2CN2CCCC[C@H]2C(=O)O)c1
- IC50 [6]: 800000 nM

Compound: Cc1c(-c2ccccc2)cccc1-c1nc2c(s1)CNCC2
- IC50 [1]: < 100 nM

Compound: N#Cc1c(-c2ccc3c(c2)OCCO3)cccc1N1CCC(N[C@H]2C[C@@H](O)C2)CC1
- IC50 [1]: < 100 nM

Compound: Cc1c(COc2cc(OCc3cncc(C#N)c3)c(CN(C)C(CO)(CO)CO)cc2Cl)cccc1-c1cccc(OCCCN2CCC(F)(F)C2)c1C
- IC50 [6]: 0.5 nM

Compound: Cc1c(-c2ccccc2)cccc1-c1nc2cc(CNCCO)ccc2o1
- IC50 [1]: < 100 nM

Compound: NC(=O)C[C@H](NC(=O)N[C@@H](CO)C(=O)O)c1nnc(-c2cnccn2)o1
- Activity (Splenocyte [5]): 63%

Compound: Cc1c(-c2ccccc2)cccc1-c1cn2nc(CNCCO)cnc2n1
- IC50 [1]: < 100 nM

Compound: NCCCC[C@H](N)c1nnc([C@H](CC(N)=O)NC(=O)N[C@@H](CCC(=O)O)C(=O)O)o1
- Activity (Splenocyte [5]): 79%

Compound: Cc1c(COc2cc(OCc3cncc(C#N)c3)c(CN(C)C(C)(CO)CO)cc2Cl)cccc1-c1ccnc(OCCCN2CCCCC2)c1Cl
- IC50 [6]: < 10 nM

Compound: CCCNC(=O)CC[C@H](NC(=O)N[C@H](C(=O)O)[C@@H](C)O)c1nc([C@@H](N)CO)no1
- Activity (Splenocyte [4]): 119%

Compound: Cc1c(NC(=O)c2cc(CN3CCCC[C@H]3C(=O)O)cn(C)c2=O)cccc1-c1ccccc1
- IC50 [6]: < 100 nM

Compound: O=C(O)C[C@H]1NC(=O)N[C@H](CO)C(=O)NCCOCCOCC(=O)N[C@@H](CO)C(=O)NNC1=O
- Activity (Splenocyte [5]): 92%

Compound: C[C@@H](O)[C@H](NC(=O)[C@H](CC(N)=O)NC(=O)[C@@H](N)CO)C(=O)N[C@@H](CO)C(=O)NC(CCC(=O)NCCCCNC(=O)C(Cc1ccccc1)NC(=O)C(N)CO)C(N)=O (some centres not stated) (H-SNTS[ξE](X1)-NH2)
- inhibition in vivo at 5 mg/kg (B16-F10): 64%

Compound: C[C@@H](O)[C@@H]1NC(=O)C(NC(=O)[C@@H](N)CO)CCC(=O)NCCCCC(C(=O)N[C@@H](CO)C(=O)N[C@@H](Cc2ccccc2)C(N)=O)NC(=O)[C@H](CO)NC1=O (some centres not stated) (H-S[ξE]TS[ξK]SF-NH2; lactam 2-5)
- Activity (Splenocyte [4]): 78%
- inhibition in vivo at 5 mg/kg (B16-F10): 54%
